Ahx = NCCCCCC(=O)O; Fl = fluorescein

These results are taken from patent US7585834B2, “Transporters comprising spaced arginine moieties” (The Board of Trustees of the Leland Stanford Junior …, priority 2001, dated 2009).

The first experiment concerns human T cell line, Jurkat. Kind of experiment: cellular uptake assay of fluorescently labeled peptides (flow cytometry, mean fluorescent signal). It is filed as cell-based. As to conditions: FIG. 1; single amino acid spacing without side chains (glycine, abu, aca); Jurkat cells. The protocol: The fluorescently labeled peptides were dissolved in PBS, pH 7.2, and their concentrations were determined by absorption of fluorescein at 490 nm (ε=67,000). The human T cell line, Jurkat, grown in 10% fetal calf serum in DMEM, was used for all the cellular uptake experiments. Varying amounts of the peptides were added to 3×10^5 cells in a total of 200λ, in wells of microtiter plates, and incubated for varying periods of time, ranging from three to five minutes. The cells were spun, washed three times with cold PBS, incubated with 0.05% trypsin/0.53 mM EDTA (Gibco, Grand Island, N.Y.) at 37° C. for five minutes, washed with PBS, and resuspended in PBS containing 0.1% propidium iodide. The cells were analyzed either using confocal microscopy or fluorescent flow cytometry (FACScan, Becton Dickinson, Milpitas, Calif.). Cells staining with propidium iodide were excluded from the analysis. Data presented is the mean fluorescent signal for the 5000 cells collected. To prevent cellular uptake of the peptides, the cells were treated with sodium azide (1.0%) for 25 minutes prior to exposure to the peptides.
(A flow cytometer gives signals particle by particle.)
Turning to “Fl-aca-RGRRGRRGRR-CONH2 [Seq. I.D. No. 4]”, the “cellular uptake of spaced arginine transport moieties tethered to fluorescein, relative to R7 homopolymer” value was “ε-aminocaproic acid>γ-aminobutyric acid>glycine”.
For the compound “Fl-aca-RacaRRacaRRacaRR-CONH2 [Seq. I.D. No. 6]”, the “cellular uptake of spaced arginine transport moieties tethered to fluorescein, relative to R7 homopolymer” value is given as “ε-aminocaproic acid>γ-aminobutyric acid>glycine”.
Still for that read-out and setting: then “Fl-aca-RabuRRabuRRabuRR-CONH2 [Seq. I.D. No. 5]”, with “ε-aminocaproic acid>γ-aminobutyric acid>glycine”.

The experiment is the same for the next values; noted with them: FIG. 2; spacing by naturally occurring amino acids; fluorescein conjugates; Jurkat cells.
Consider “Fl-aca-RGRRGRRGRR-CONH2 [Seq. I.D. No. 4]”, for which the “cellular uptake relative to the homopolymer R7 having no spacing” value is reported as “increase in cellular uptake was found”.
As for “Fl-aca-RARRARRARR-CONH2 [Seq. I.D. No. 7]”, the “cellular uptake relative to the homopolymer R7 having no spacing” value is “increase in cellular uptake was found”.
In the case of `N[C@@H](CC(=O)O)C(=O)O` [Seq. I.D. No. 8], the “cellular uptake relative to the homopolymer R7 having no spacing” value is recorded as “Reduced, or comparable uptake”.
In the case of “Fl-aca-RSRRSRRSRR-CONH2 [Seq. I.D. No. 19]”, the “cellular uptake relative to the homopolymer R7 having no spacing” value is “increase in cellular uptake was found”.
Turning to `CC[C@H](C)[C@H](N)C(=O)O` [Seq. I.D. No. 12], the “cellular uptake relative to the homopolymer R7 having no spacing” value is recorded as “increase in cellular uptake was found”.
Take `NCCCC[C@H](N)C(=O)O` [Seq. I.D. No. 13]: the “cellular uptake relative to the homopolymer R7 having no spacing” value is reported as “increase in cellular uptake was found”.
In the case of `N[C@@H](CCC(=O)O)C(=O)O` [Seq. I.D. No. 9], the “cellular uptake relative to the homopolymer R7 having no spacing” value is listed as “Reduced, or comparable uptake”.
The same measure, in the same setting: then “Fl-aca-RPRRPRRPRR-CONH2 [Seq. I.D. No. 17]”, with “increase in cellular uptake was found”; and “Fl-aca-RNRRNRRNRR-CONH2 [Seq. I.D. No. 16]”, with “increase in cellular uptake was found”; and `C[C@@H](O)[C@H](N)C(=O)O` [Seq. I.D. No. 20], with “increase in cellular uptake was found”.
Consider `N[C@@H](Cc1ccc(O)cc1)C(=O)O` [Seq. I.D. No. 22], for which the “cellular uptake relative to the homopolymer R7 having no spacing” value was “Reduced, or comparable uptake”.
For the compound `N[C@@H](Cc1c[nH]cn1)C(=O)O` [Seq. I.D. No. 11], the “cellular uptake relative to the homopolymer R7 having no spacing” value is given as “increase in cellular uptake was found”.
As to “Fl-aca-RFRRFRRFRR-CONH2 ({Fl-Ahx}-RFRRFRRFRR-NH2) [Seq. I.D. No. 10]”, the “cellular uptake relative to the homopolymer R7 having no spacing” value is given as “increase in cellular uptake was found”.
Turning to “Fl-aca-RVRRVRRVRR-CONH2 [Seq. I.D. No. 21]”, the “cellular uptake relative to the homopolymer R7 having no spacing” value was “increase in cellular uptake was found”.
Same read-out and setting: to `NC(=O)CC[C@H](N)C(=O)O` [Seq. I.D. No. 18] belongs “increase in cellular uptake was found”.
“Fl-aca-RMRRMRRMRR-CONH2 [Seq. I.D. No. 15]”: the “cellular uptake relative to the homopolymer R7 having no spacing” value is recorded as “increase in cellular uptake was found”.

The experiment is the same for the next values; noted with them: FIG. 4; 6.25 μM; Jurkat cells.
“Fl-aca-R7CONH2 [Seq. I.D. No. 2, reference compound]”: the “cellular uptake at the lower concentration” value is on record as “begins to drop off”.

Still in this experiment, the particulars now being: FIG. 6; compared with (RX)6R, X = aca, gly-gly or gly; Jurkat cells.
Turning to “Fl-aca-r13-CONH2 [Seq. I.D. No. 28, reference compound]”, the “uptake (mean fluorescence) of (RX)6R transport oligomers versus homopolymers of D-arginine” value is “significantly less effective in entering the cells”.
Still for that read-out and setting: to “Fl-aca-r19-CONH2 [Seq. I.D. No. 29, reference compound]” belongs “significantly less effective in entering the cells”.
